For 2 compounds, inhibition results are on record in paper PMC4639830, “Inhibition of DYRK1A and GSK3B induces human β-cell proliferation” (Nature Communications, 2015).

The structures appear in SMILES notation.

Common to all, as to assay: Kinase profiling
What all share (format): biochemical

One assay concerns the target T1, BTK (Homo sapiens, UniProt Q06187).
T1 construct: purchased Ambit KINOMEscan
The following applies: Conc 1000 nM; read-out: Percent inhibition, BTK. An excerpt:
(§1) ; Fig. 5a; Supplementary Table 1). We focused on Dyrk1a because other kinases inhibited by aminopyrazine compounds were not highly expressed in β-cells and because Dyrk1a was known to inhibit the NFAT pathway that was previously implicated in β-cell proliferation. We used molecular modelling to dock the aminopyrazine compounds into the published structure of Dyrk1a (protein databank accession code 2vx3.pdb; Fig. 5b).

A further assay has as its target T2, ROCK1 (Homo sapiens, UniProt Q13464).
T2 construct: purchased Ambit (KINOMEscan)
Conditions: Conc 1000 nM; read-out: Percent inhibition, ROCK1.
Text: as §1

For another assay, the target named is T3, MEK1 (Homo sapiens, UniProt Q02750).
T3 construct: purchased Ambit (KINOMEscan)
The following applies: Conc 1000 nM; read-out: Percent inhibition, MEK1.
Text: as §1

In the next assay the target is T4, Axl (Homo sapiens, UniProt P30530).
T4 construct: purchased Ambit KINOMEscan
T4 sequence (P30530 26-894): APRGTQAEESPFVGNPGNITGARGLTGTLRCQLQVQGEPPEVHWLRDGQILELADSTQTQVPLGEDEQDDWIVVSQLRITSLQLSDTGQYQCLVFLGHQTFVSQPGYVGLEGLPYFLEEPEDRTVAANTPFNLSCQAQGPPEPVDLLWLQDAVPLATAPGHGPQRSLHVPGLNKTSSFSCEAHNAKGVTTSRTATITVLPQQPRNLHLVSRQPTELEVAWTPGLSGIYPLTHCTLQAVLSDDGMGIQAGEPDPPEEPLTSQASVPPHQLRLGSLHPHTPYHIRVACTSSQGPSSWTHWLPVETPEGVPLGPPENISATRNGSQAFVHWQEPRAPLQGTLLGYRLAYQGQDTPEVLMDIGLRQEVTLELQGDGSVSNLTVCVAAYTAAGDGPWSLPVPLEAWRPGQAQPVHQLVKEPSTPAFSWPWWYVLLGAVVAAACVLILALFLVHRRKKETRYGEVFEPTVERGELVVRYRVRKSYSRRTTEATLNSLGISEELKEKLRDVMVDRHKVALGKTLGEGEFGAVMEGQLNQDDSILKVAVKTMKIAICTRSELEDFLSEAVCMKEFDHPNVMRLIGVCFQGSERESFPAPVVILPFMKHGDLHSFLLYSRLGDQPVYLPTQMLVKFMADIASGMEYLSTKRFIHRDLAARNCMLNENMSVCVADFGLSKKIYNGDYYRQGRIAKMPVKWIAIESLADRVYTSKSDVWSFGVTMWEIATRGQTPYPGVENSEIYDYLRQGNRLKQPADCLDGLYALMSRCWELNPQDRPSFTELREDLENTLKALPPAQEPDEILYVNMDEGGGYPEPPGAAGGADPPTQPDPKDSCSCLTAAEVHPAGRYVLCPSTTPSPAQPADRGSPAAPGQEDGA
Conditions: read-out: Percent inhibition, Axl; for inhibition at 1 µM: Conc 1000 nM.
Text: as §1

Another assay addresses T5, FMS (CSF1R) (Homo sapiens, UniProt P07333).
T5 construct: purchased Ambit KINOMEscan
Conditions: Conc 1000 nM; read-out: Percent inhibition, FMS (CSF1R).
Text: as §1

Another assay concerns the target T6, p38alpha (MAPK14) (Homo sapiens, UniProt Q16539).
T6 construct: purchased Ambit (KINOMEscan)
The following applies: Conc 1000 nM; read-out: Percent inhibition, p38alpha (MAPK14).
Text: as §1

In the next assay the target is T7, LynA (Homo sapiens, UniProt P07948).
T7 construct: purchased Ambit (KINOMEscan)
The following applies: Conc 1000 nM; read-out: Percent inhibition, LynA.
Text: as §1

Another assay deals with T8, PDGFRa (Homo sapiens, UniProt P16234).
T8 construct: purchased Ambit (KINOMEscan)
Conditions: read-out: Percent inhibition, PDGFRa; for inhibition at 1 µM: Conc 1000 nM.
Text: as §1

The next assay concerns the target T9, ErbB4 (HER4) (Homo sapiens, UniProt Q15303).
T9 construct: purchased Ambit KINOMEscan
Conditions: Conc 1000 nM; read-out: Percent inhibition, ErbB4 (HER4).
Text: as §1

A further assay addresses T10, PIM-2 (Homo sapiens, UniProt Q9P1W9).
T10 construct: purchased Ambit (KINOMEscan)
The following applies: Conc 1000 nM; read-out: Percent inhibition, PIM-2.
Text: as §1

The next assay deals with T11, MAPK1 (ERK2) (Homo sapiens, UniProt P28482).
T11 construct: purchased Ambit (KINOMEscan)
The following applies: Conc 1000 nM; read-out: Percent inhibition, MAPK1 (ERK2).
Text: as §1

A further assay addresses T12, ROS (Homo sapiens, UniProt P08922).
T12 construct: purchased Ambit (KINOMEscan)
The following applies: read-out: Percent inhibition, ROS; for inhibition at 1 µM: Conc 1000 nM.
Text: as §1

The next assay has as its target T13, IRAK4 (Homo sapiens, UniProt Q9NWZ3).
T13 construct: purchased Ambit KINOMEscan
Conditions: Conc 1000 nM; read-out: Percent inhibition, IRAK4.
Text: as §1

In a further assay the target is T14, EphB3 (Homo sapiens, UniProt P54753).
T14 construct: purchased Ambit KINOMEscan
The following applies: Conc 1000 nM; read-out: Percent inhibition, EphB3.
Text: as §1

The target in another assay is T15, KDR (VEGFR2, FLK1) (Homo sapiens, UniProt P35968).
T15 construct: purchased Ambit KINOMEscan
The following applies: read-out: Percent inhibition, KDR (VEGFR2, FLK1); for inhibition at 1 µM: Conc 1000 nM.
Text: as §1

For the next assay, the target named is T16, CDK2/cyclinA (Homo sapiens, UniProt P24941).
T16 construct: purchased Ambit KINOMEscan
The following applies: read-out: Percent inhibition, CDK2/cyclinA; for inhibition at 1 µM: Conc 1000 nM.
Text: as §1

Another assay addresses T17, p70S6K1 (Homo sapiens, UniProt P23443).
T17 construct: purchased Ambit (KINOMEscan)
Conditions: Conc 1000 nM; read-out: Percent inhibition, p70S6K1.
Text: as §1

In the next assay the target is T18, LCK (Homo sapiens, UniProt P06239).
T18 construct: purchased Ambit (KINOMEscan)
Conditions: Conc 1000 nM; read-out: Percent inhibition, LCK.
Text: as §1

In a further assay the target is T19, c-Kit (Homo sapiens, UniProt P10721).
T19 construct: purchased Ambit KINOMEscan
The following applies: Conc 1000 nM; read-out: Percent inhibition, c-Kit.
Text: as §1

Another assay deals with T20, TTK (Homo sapiens, UniProt P33981).
T20 construct: purchased Ambit (KINOMEscan)
Conditions: Conc 1000 nM; read-out: Percent inhibition, TTK.
Text: as §1

In the next assay the target is T21, Abl (Homo sapiens, UniProt P00519).
T21 construct: purchased Ambit KINOMEscan
Conditions: Conc 1000 nM; read-out: Percent inhibition, Abl.
Text: as §1

T12 sequence (P08922 28-2347): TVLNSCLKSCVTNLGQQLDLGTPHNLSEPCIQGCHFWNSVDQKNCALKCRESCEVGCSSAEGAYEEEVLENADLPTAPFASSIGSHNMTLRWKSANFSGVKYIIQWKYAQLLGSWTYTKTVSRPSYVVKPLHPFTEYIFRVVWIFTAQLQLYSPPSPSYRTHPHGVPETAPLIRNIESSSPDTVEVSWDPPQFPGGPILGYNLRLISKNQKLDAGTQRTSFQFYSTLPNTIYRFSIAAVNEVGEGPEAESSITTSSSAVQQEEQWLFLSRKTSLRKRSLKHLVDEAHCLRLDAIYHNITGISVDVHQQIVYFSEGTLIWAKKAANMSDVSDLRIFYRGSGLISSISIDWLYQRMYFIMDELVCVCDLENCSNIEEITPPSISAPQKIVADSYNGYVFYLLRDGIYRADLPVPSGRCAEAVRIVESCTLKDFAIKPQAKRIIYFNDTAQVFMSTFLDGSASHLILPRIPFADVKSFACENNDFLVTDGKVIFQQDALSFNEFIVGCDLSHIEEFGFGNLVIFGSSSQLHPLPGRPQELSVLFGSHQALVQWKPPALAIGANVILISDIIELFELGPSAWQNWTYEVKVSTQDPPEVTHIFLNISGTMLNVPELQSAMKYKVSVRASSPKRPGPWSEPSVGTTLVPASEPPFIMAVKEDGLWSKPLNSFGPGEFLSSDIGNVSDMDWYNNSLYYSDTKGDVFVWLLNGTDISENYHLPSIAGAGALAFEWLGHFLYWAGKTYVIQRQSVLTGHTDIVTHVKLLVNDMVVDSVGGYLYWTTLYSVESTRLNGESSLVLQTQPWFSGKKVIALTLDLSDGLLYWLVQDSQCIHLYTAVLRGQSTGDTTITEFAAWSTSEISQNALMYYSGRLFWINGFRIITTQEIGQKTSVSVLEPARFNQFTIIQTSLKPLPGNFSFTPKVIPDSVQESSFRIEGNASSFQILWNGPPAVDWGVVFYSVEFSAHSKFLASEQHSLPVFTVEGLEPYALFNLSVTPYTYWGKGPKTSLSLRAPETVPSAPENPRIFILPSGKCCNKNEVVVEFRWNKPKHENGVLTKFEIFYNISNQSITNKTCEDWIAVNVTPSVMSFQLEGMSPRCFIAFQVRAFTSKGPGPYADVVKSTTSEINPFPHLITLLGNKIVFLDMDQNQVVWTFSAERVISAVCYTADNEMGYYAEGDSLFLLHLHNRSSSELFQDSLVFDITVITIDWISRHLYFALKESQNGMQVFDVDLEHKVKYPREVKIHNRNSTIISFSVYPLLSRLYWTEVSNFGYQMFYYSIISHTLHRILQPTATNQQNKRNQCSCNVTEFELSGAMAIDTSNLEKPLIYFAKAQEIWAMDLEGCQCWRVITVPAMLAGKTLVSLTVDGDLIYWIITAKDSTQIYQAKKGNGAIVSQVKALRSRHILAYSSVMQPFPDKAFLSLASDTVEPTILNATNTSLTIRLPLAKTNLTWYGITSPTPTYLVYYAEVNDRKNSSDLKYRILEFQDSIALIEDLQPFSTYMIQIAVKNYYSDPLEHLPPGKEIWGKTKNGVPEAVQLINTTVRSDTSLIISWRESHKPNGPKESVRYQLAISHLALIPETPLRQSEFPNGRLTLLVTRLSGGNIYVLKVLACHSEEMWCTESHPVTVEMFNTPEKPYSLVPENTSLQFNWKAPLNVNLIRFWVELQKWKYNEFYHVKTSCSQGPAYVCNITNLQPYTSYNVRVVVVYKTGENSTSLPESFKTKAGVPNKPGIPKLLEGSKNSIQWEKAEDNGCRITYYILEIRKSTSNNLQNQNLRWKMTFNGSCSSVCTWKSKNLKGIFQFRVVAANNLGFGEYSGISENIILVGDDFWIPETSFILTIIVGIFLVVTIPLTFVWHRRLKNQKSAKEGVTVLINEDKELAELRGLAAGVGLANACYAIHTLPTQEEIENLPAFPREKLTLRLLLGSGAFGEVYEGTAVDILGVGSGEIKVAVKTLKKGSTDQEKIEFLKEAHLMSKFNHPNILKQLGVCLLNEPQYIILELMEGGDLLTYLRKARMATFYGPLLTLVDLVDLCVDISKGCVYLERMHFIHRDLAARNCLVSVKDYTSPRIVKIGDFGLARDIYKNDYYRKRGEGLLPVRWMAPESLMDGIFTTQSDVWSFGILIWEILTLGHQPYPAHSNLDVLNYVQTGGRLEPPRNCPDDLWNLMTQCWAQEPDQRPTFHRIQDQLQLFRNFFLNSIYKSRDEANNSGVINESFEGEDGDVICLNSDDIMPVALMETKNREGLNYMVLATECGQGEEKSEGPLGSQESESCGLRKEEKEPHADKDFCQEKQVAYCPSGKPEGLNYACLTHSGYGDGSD
T15 sequence (P35968 20-1356): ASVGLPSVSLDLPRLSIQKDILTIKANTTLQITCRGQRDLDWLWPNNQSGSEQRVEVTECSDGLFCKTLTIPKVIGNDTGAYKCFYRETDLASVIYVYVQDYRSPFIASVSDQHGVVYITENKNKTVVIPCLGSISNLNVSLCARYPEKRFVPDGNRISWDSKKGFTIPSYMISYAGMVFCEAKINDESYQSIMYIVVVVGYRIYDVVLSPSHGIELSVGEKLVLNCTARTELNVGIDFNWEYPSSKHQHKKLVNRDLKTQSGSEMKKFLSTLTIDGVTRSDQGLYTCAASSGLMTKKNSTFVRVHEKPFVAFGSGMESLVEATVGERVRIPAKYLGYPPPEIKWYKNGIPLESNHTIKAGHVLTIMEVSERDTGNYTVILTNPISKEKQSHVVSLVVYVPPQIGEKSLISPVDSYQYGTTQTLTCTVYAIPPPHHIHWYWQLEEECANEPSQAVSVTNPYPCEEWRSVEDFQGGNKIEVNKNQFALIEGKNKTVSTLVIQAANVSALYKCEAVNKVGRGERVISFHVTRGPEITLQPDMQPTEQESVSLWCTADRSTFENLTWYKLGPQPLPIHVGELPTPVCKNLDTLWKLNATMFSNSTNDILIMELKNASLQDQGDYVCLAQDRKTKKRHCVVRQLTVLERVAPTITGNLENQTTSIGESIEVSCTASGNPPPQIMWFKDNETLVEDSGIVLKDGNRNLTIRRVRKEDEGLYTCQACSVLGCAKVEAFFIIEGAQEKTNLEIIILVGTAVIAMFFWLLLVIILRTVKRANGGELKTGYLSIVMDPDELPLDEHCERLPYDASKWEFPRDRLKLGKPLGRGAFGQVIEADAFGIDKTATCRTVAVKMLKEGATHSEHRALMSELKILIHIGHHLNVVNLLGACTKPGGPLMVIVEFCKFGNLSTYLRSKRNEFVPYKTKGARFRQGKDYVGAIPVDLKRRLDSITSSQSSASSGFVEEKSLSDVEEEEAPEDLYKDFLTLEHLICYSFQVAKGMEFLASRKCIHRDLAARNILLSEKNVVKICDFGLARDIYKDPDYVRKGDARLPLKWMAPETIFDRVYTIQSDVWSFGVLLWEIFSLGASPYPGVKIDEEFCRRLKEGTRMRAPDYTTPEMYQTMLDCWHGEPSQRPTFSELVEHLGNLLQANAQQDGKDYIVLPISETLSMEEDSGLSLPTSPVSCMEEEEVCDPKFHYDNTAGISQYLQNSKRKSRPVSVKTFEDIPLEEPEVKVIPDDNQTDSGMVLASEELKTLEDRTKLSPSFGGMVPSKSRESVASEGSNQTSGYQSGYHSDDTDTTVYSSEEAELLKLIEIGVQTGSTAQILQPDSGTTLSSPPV
T8 sequence (P16234 24-1089): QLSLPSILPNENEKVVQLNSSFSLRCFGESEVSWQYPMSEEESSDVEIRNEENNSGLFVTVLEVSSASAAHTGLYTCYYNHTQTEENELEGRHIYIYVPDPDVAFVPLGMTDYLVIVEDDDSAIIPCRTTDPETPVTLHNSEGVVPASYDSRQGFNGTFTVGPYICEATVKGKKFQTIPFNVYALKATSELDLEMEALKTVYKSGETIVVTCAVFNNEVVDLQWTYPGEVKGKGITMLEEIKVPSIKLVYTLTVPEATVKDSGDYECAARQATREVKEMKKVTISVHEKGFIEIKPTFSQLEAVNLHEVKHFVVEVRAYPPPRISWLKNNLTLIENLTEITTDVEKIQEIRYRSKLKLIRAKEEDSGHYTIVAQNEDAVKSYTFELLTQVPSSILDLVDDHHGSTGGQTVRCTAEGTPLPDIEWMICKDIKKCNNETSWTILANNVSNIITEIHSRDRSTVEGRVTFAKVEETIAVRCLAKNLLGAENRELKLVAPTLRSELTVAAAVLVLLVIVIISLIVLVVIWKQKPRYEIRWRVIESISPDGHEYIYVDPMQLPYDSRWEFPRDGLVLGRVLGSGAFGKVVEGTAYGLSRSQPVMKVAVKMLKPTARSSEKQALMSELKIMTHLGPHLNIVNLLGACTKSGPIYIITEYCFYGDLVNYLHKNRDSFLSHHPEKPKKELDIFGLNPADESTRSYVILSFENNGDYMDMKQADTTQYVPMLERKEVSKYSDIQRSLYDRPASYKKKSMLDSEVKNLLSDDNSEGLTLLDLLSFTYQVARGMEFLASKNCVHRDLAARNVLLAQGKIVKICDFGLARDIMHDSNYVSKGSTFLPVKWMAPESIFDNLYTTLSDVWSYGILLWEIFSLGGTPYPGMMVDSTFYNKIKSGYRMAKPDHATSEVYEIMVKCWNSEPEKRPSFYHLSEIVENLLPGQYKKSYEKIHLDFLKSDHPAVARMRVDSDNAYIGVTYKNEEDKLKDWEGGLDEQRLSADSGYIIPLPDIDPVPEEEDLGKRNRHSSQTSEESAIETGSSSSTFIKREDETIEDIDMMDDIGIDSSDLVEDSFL
T10 sequence (Q9P1W9 whole entry): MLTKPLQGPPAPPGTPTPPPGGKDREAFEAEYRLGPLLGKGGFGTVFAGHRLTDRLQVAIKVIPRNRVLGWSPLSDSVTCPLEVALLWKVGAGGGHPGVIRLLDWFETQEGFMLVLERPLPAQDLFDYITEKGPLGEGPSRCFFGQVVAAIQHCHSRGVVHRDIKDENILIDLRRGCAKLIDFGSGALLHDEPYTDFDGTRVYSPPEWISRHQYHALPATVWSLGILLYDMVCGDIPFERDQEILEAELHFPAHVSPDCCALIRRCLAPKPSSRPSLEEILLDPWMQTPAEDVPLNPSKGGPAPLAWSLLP

For the compound `Nc1ncc(-c2ccccc2)nc1C(=O)Nc1cnccc1N1CCC(C(=O)O)CC1` [GNF7156], the inhibition at 1 µM on BTK stood at 83%; on ROCK1 it was 9%; on MEK1, 50%; at Axl, 88%; on FMS (CSF1R), 78%; on p38alpha (MAPK14), 9%. Besides, the inhibition at 1 µM on LynA worked out at 56%; on PDGFRa, 78%; at ErbB4 (HER4) it was 36%; at PIM-2, 60%; at MAPK1 (ERK2), 6%; on ROS it was 96%. For the same compound, the inhibition at 1 µM at IRAK4 worked out at 25%; on EphB3 it was 12%; on KDR (VEGFR2, FLK1) it was 102%; at CDK2/cyclinA, 90%; at p70S6K1, 50%; on LCK, 31%. Also, the inhibition at 1 µM was 49% on c-Kit, 29% on TTK and 90% at Abl.

As for `CC(C)Oc1ccc(F)c(-c2cnc(N)c(C(=O)Nc3cnccc3N3CCC[C@@H](C(=O)O)C3)n2)c1` [GNF4877], the inhibition at 1 µM at BTK was found to be 42%; on ROCK1, 36%; at MEK1, 17%; at Axl it was 94%; at FMS (CSF1R), 72%; at p38alpha (MAPK14) it was 6%. In addition, the inhibition at 1 µM is 54% on LynA; 88% at PDGFRa; 54% on ErbB4 (HER4); 31% on PIM-2; 7% at MAPK1 (ERK2); 97% at ROS. Also, the inhibition at 1 µM stood at 52% at IRAK4; 28% on EphB3; 101% at KDR (VEGFR2, FLK1); 95% at CDK2/cyclinA; 75% at p70S6K1; 43% on LCK. The inhibition at 1 µM at c-Kit worked out at 77%; at TTK, 51%; on Abl it was 66%. For the same compound, the inhibition at 0.2 µM on Axl (Conc 200 nM) amounted to 74%; on PDGFRa (Conc 200 nM), 0%; on ROS (Conc 200 nM), 71%; on KDR (VEGFR2, FLK1) (Conc 200 nM) it was 6%; on CDK2/cyclinA (Conc 200 nM), 67%.
